Molecules are shown by their SMILES. A value given as a limit tells only on which side of the number the result lay.

Data set [1] addresses NR1A/NR2B NMDA receptor (Rattus norvegicus, UniProt P35439+Q00960). As to the kind of experiment: Electrophysiological assay at NMDA receptor subunits expressed in Xenopus oocytes. The format is cell-based. The settings on record: cloned rat NR1A/NR2B in Xenopus oocytes, two-electrode voltage clamp, glutamate 100 μM + glycine 1-100 μM; read-out: NR1A/NR2B Oocyte IC50. An excerpt: Preparation of RNA. cDNA clones encoding the NR1A, NR2A, NR2B, and NR2C rat NMDA receptor subtypes were used (see, Moriyoshi, supra., 1991; Kutsuwada et al., supra., 1992; Monyer et al., supra, 1992; Ikeda et al., FEBS Lett., 1992;313:34-38; Ishii et al., J. Biol. Chem., 1993;268:2836-2843 for details of these clones or their mouse homologs). The clones were transformed into appropriate host bacteria and plasmid preparations were made with conventional DNA purification techniques. A sample of each clone linearized by restriction enzyme digestion […] was synthesized with T3 RNA polymerase. The cRNA was diluted to 400 ng/μL and stored in 1-μL aliquots at −80° C. until injection.
The Xenopus oocyte expression system. Mature female Xenopus laevis were anaesthetized (20-40 minutes) using 0.15% 3-aminobenzoic acid ethyl ester (MS-222), and 2 to 4 ovarian lobes were surgically removed. Oocytes at developmental stages IV-VI (Dumont J. N., J. Morphol., 1972;136:153-180) were dissected from the ovary still surrounded by enveloping ovarian tissues. Follicle-enclosed oocytes were microinjected with 1:1 mixtures of NR1A:NR2A, 2B or 2C; injecting 1 to 10 ng of RNA encoding each receptor subunit. NR1A encoding RNA was injected alone at ˜20 ng. Oocytes were stored in Barth's medium containing (in mM): NaCl, 88; KCl, 1; CaCl2, 0.41; Ca (NO3)2, 0.33; MgSO4, 0.82; NaHCO3, 2.4; HEPES 5; pH 7.4, with 0.11 mg/mL gentamicin sulphate. While oocytes were still surrounded by enveloping ovarian tissues, the Barth's medium was supplemented with 0.1% bovine serum. Oocytes were defolliculated 1 to 2 days following injections by treatment with collagenase (0.5 mg/mL Sigma Type I for 0.5-1 hr)-(Miledi and Woodward, J. Phsyiol., (Lond) 1989;416:601-621) and subsequently stored in serum-free medium.
Electrical recordings were made using a conventional two-electrode voltage clamp (Dagan TEV-200) over periods ranging between 3 to 21 days following injection (Woodward et al., Mol. Pharmacol., 1992;41:89-103). Oocytes were placed in a 0.1-mL recording chamber continuously perfused (5 mL-15 mL min^−1) with frog Ringer's solution containing (in mM): NaCl, 115; KCL, 2; BaCl2, 1.8; HEPES, 5; and pH 7.4. Drugs were applied by bath perfusion. Using oocytes expressing different subunit combinations of NMDA receptor, NMDA currents were activated by co-application of glutamate (100 μM) and glycine (1-100 μM). Inhibitory potency of the novel antagonists was assessed on responses elicited by fixed concentrations of glutamate and glycine, by measuring reductions in current induced by progressively increasing concentrations of antagonist.
Concentration-inhibition curves were fit with Equation 1.
I/Icontrol=1/(1+([antagonist]/10−^pIC50)^n) Eq. 1
In which Icontrol is the current evoked by agonists alone, pIC50=−log IC50, IC50 is the concentration of antagonist that produced half maximal inhibition, and n is the slope factor (De Lean et al., Am. J. Physiol., 1978;235:E97-102). For incomplete curves, analysis by fitting was unreliable and IC50 values were calculated by simple regression over linear portions of the curves (Origin: Microcal Software).
On the technique in general: In two-electrode clamp one electrode senses voltage and the other passes current.

Data set [2] deals with T1, [3H]ifenprodil binding site, rat forebrain membranes (Rattus norvegicus, UniProt P35439+Q00960).
T1 construct: membrane fraction was prepared from frozen adult rat forebrains; tissue Zivic-Miller Laboratories, Inc; host or cells: adult rat forebrain, washed buffy coat membrane fraction
In words: [3H]Ifenprodil binding assay. The settings on record: 4 nM [3H]-ifenprodil, 2 hours at room temperature. In short, it runs like this: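 Washed rat forebrain buffy coat membranes (100-200 μg protein) were incubated with 4 nM [3H]ifenprodil in 20 mM HEPES-KOH pH 7.4 for 2 hours at room temperature, in triplicate, then filtered on PEI-soaked GF/B filters. Nonspecific binding was set with 1 mM ifenprodil. IC50 came from a one- or two-site competition fit.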

The subject of data set [3] is 6-Hydroxydopamine-lesioned rats. In words: 6-OHDA lesioned rat assay. The format is in vivo. The settings on record: for 6-OHDA MED: minimum effective dose to potentiate contraversive rotation induced by L-DOPA methyl ester 10 mg/kg SC, 6-hour period; for 6-OHDA active/inactive at the given dose: statistically significant increase in contraversive rotations vs L-DOPA only. As for the experimental part:
6-Hydroxydopamine-lesioned rats were used (see Ungerstedt U., Arbuthnott G. W., Quantitative recording of rotational behavior in rats after 6-hydroxy-dopamine lesions of the nigrostraiatal dopamine system. Brain Res., 1971;24(3):485-93). Adult male Sprague-Dawley rats were anesthetized with chloral hydrate and unilateral lesions of the nigrostriatal dopamine system were accomplished by infusion of 8 μg of 6-hydroxydopamine HBr (6-OHDA) into the right medial forebrain bundle. Rats were pretreated 30 minutes before surgery with desipramine HCl 25 mg/kg intraperitoneally (IP) to protect noradrenegic neurons, and pargyline 25 mg/kg IP to potentiate the effects of 6-OHDA. A minimum of 3 weeks after surgery, the rotational behavior induced by apomorphine HCL 50 μg/kg subcutaneously (SC) was assessed.
Rotational behavior was measured using an automatic rotometer system (Rotorat Rotational Activity System, MED Associates, Georgia, Vt.). Anti-parkinsonian activity was assessed as the ability of the compound to potentiate the contraversive rotation induced by L-DOPA methyl ester, 10 mg/kg SC, over a 6-hour period. Experiments were conducted using a crossover paradigm where each rat received either a vehicle plus L-DOPA, or the test compound plus L-DOPA, in randomized order. Rats were tested at 7-day intervals. In experiments in which the compound was tested orally, rats were food deprived for 16 hours. Statistical analysis between treatment groups were performed using a paired t-test. The results were reported in Table 1 as the minimum effective dose (MED) of compound (mg/kg) required to produce a statistically-significant increase in total contraversive rotations compared to rats receiving L-DOPA only.

T1 sequence (Q00960 27-1482, other chains not shown): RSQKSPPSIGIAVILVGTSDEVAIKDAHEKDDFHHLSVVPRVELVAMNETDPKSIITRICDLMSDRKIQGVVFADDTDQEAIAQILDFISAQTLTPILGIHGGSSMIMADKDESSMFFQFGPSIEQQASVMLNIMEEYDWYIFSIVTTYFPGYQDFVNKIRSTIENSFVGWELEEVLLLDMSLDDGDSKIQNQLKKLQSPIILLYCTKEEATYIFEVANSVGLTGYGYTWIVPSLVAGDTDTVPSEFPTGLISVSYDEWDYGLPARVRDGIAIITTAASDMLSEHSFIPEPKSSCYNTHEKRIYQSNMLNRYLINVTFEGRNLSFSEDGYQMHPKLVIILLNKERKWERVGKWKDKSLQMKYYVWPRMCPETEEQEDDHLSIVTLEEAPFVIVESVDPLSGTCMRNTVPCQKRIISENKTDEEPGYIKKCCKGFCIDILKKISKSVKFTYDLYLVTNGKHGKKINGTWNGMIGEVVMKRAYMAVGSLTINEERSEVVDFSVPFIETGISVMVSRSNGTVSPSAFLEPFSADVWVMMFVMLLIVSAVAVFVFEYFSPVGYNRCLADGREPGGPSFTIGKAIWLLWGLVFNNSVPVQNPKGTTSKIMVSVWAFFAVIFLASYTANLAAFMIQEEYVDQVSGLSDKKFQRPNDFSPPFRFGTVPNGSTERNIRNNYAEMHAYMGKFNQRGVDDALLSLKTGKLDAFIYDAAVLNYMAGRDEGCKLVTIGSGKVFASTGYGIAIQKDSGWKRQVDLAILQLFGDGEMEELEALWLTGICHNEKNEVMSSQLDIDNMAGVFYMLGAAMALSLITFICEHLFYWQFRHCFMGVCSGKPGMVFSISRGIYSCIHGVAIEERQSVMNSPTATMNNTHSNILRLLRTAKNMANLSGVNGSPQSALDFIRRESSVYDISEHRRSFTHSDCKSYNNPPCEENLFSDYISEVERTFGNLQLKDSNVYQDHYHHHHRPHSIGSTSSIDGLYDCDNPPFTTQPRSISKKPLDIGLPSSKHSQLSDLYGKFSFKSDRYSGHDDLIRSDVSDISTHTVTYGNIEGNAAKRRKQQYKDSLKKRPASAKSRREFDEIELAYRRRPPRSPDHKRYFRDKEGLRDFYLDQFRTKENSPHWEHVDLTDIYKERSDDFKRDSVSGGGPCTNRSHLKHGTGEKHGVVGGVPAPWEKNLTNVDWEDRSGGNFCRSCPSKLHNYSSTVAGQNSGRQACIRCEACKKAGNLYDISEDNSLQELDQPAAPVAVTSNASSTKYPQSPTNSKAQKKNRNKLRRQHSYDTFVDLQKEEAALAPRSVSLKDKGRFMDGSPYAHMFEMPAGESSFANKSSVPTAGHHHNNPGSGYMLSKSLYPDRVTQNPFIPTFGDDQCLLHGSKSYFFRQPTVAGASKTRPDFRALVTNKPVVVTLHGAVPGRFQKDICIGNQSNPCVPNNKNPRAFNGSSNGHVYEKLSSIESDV
Chain of NR1A/NR2B NMDA receptor (Q00960 27-1482, other chains not shown): as above

The melting point is the temperature of the solid-liquid transition. `O=c1[nH]c2ccc([C@H]3CC[C@H](NCCCc4ccccc4)CC3)cc2o1` [Example 1, 6-[trans-4-(3-Phenylpropylamino)cyclohexyl]-3H-benzoxazol-2-one]: the melting point lay within 166 to 170 °C. Also, in data set [1], the IC50 worked out at 30 nM. This compound also yielded an IC50 in data set [2] of 4 nM. Further, in data set [3], the “6-OHDA MED” value stood at 30 mg/kg and the “6-OHDA active/inactive at the given dose” value is recorded as “active”.
The like results for `O=c1[nH]c2ccc([C@H]3CC[C@H](NCCOc4ccc(F)cc4)CC3)cc2o1` [Example 2, 6-{trans-4-[2-(4-Fluorophenoxy)ethylamino]cyclohexyl}-3H-benzoxazol-2-one] were, in that order, 172 to 176 °C, 100 nM, 40 nM, 10.0 mg/kg and “active”.
On to `O=c1[nH]c2ccc([C@H]3CC[C@H](NCCOc4ccccc4)CC3)cc2o1` [Example 3, 6-[trans-4-(2-Phenoxyethylamino)cyclohexyl]-3H-benzoxazol-2-one], for which the melting point fell in the range of 159 to 162 °C. Moreover, the IC50 in data set [1] worked out at 100 nM. Besides, in data set [3], the “6-OHDA MED” value amounted to 10.0 mg/kg and the “6-OHDA active/inactive at the given dose” value is recorded as “active”.
For the compound `O=c1[nH]c2ccc([C@H]3CC[C@H](NCCCc4ccc(F)cc4)CC3)cc2o1` [Example 4a, 6-{trans-4-[3-(4-Fluorophenyl)propylamino]cyclohexyl}-3H-benzoxazol-2-one], the values for the IC50 in data set [1] and in data set [2] were 20 nM and 7 nM, respectively. Also, the “6-OHDA MED” value in data set [3] is listed as above 10.0 mg/kg. Besides, the “6-OHDA active/inactive at the given dose” value in data set [3] is “inactive”.
As for `O=c1[nH]c2ccc([C@H]3CC[C@H](NCCNc4ccccc4)CC3)cc2o1` [Example 7, 6-[trans-4-(2-Phenylaminoethylamino)cyclohexyl]-3H-benzoxazol-2-one], the melting point was in the range of 293 to 295 °C. For the same compound, the IC50 in data set [1] worked out at 90 nM. In data set [2], this compound displayed an IC50 of 37 nM.
For the compound `C[C@H](CCc1ccccc1)N[C@H]1CC[C@H](c2ccc3[nH]c(=O)oc3c2)CC1` [Example 9, 6-{trans-4-[(R)-1-Methyl-3-phenylpropylamino]cyclohexyl}-3H-benzoxazol-2-one], the IC50 is 60 nM in data set [1] and 15 nM in data set [2].
`C[C@@H](CCc1ccccc1)N[C@H]1CC[C@H](c2ccc3[nH]c(=O)oc3c2)CC1` [Example 10, 6-{trans-4-[(S)-1-Methyl-3-phenylpropylamino]cyclohexyl}-3H-benzoxazol-2-one]: the melting point was 174 to 176 °C. The IC50 in data set [1] was found to be 110 nM. The IC50 in data set [2] was 49 nM.
Turning to `COc1ccc([C@H](O)[C@H](C)N[C@H]2CC[C@H](c3ccc4[nH]c(=O)oc4c3)CC2)cc1` [Example 11a, 6-{trans-4-[(1S,2S)-2-Hydroxy-2-(4-methoxyphenyl)-1-methylethylamino]-cyclohexyl}-3H-benzoxazol-2-one], the IC50 in data set [1] is 55000 nM; in data set [2] it was above 1000 nM.
The like results for `COc1ccc([C@H](O)[C@H](C)N[C@H]2CC[C@@H](c3ccc4[nH]c(=O)oc4c3)CC2)cc1` [Example 11b, 6-{cis-4-[(1S,2S)-2-Hydroxy-2-(4-methoxyphenyl)-1-methylethylamino]-cyclohexyl}-3H-benzoxazol-2-one] were, in that order, 10000 nM and above 1000 nM.
The matching figures for `Cc1ccc(CCCN[C@H]2CC[C@@H](c3ccc4[nH]c(=O)oc4c3)CC2)cc1` [Example 13a, 6-[cis-4-(3-p-Tolylpropylamino)cyclohexyl]-3H-benzoxazol-2-one]: 80 nM and 38 nM.
The like results for `Cc1ccc(CCCN[C@H]2CC[C@H](c3ccc4[nH]c(=O)oc4c3)CC2)cc1` [Example 13b, 6-[trans-4-(3-p-Tolylpropylamino)cyclohexyl]-3H-benzoxazol-2-one] were, in that order, 20 nM and 5 nM.
On to `O=c1[nH]c2ccc([C@H]3CC[C@H](NCC[S+]([O-])c4ccccc4)CC3)cc2o1` (stereo partly drawn) [Example 15, 6-[trans-4-(2-Benzenesulfinylethylamino)cyclohexyl]-3H-benzoxazol-2-one], for which the IC50 is 460 nM in data set [1] and 92 nM in data set [2].
Turning to `O=c1[nH]c2ccc([C@H]3CC[C@H](NCCS(=O)(=O)c4ccccc4)CC3)cc2o1` [Example 16, 6-[trans-4-(2-Benzenesulfonylethylamino)cyclohexyl]-3H-benzoxazol-2-one], the IC50 worked out at 2500 nM in data set [1] and 1730 nM in data set [2].
Turning to `CN(CCCc1ccc(F)cc1)[C@H]1CC[C@H](c2ccc3[nH]c(=O)oc3c2)CC1` [Example 18, 6-(trans-4-{[3-(4-Fluorophenyl)propyl]methylaamino}cyclohexyl)-3H-benzoxazol-2-one], the melting point is 62 to 65 °C. Also, in data set [1], the IC50 worked out at 65 nM. Further, the IC50 in data set [2] is 9 nM. Also, in data set [3], the “6-OHDA MED” value is listed as 10 mg/kg and the “6-OHDA active/inactive at the given dose” value is recorded as “active”.

Source of the values: patent publication US6794402B2, “Bicyclic cyclohexylamines and their use as NMDA receptor antagonists” (Warner-Lambert Company, priority 2000, dated 2004).
